Assay [1] concerns the target Beta-2 adrenergic receptor (Homo sapiens, UniProt P07550). The assay can be described thus: DRUGMATRIX: Adrenergic beta2 radioligand binding (ligand: [3H] CGP-12177). Format: cell membranes, CHO, Membrane. As to conditions: cho; Not Active = under 50% inhibition at 10 µM.
For assay [2], the target named is Beta-3 adrenergic receptor (Homo sapiens, UniProt P13945). The assay is described as follows: DRUGMATRIX: Adrenergic beta3 radioligand binding (ligand: [125I] Cyanopindolol). Format: cell membranes, HEK293, Membrane. As to conditions: Not Active = under 50% inhibition at 10 µM; for Ki: read-out: Ki.
Assay [3] is described as follows: DRUGMATRIX: Sigma2 radioligand binding (ligand: [3H] Ifenprodil). The format is cell membranes, Rattus norvegicus, Wistar, Brain, Membrane. As to conditions: Not Active = under 50% inhibition at 10 µM.
In a further assay the target is T1, Leukotriene C4 synthase (Cavia porcellus, UniProt A6XA80).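 Further: enzyme inhibition assay of leukotriene C4 synthase, using LTA4 as the substrate; in other assays of this panel Not Active means under 50% inhibition at 10 µM.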
T1 sequence (A6XA80 whole entry): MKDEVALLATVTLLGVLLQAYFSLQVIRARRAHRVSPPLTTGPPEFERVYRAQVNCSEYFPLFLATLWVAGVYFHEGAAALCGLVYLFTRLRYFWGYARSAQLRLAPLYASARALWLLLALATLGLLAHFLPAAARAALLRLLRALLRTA
Format: tissue-based, Lung.

The target of assay [4] is Receptor tyrosine-protein kinase erbB-2 (Homo sapiens, UniProt P04626). The assay is described as follows: biochemical. Format: cell-based, Insect cells.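 Further: inhibition of HER2 kinase enzyme activity, measured with Poly(Glu:Tyr) as the phosphorylation substrate; in other assays of this panel Not Active means under 50% inhibition at 10 µM.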
The target of a further assay is Acetylcholinesterase (Homo sapiens, UniProt P22303). The assay can be described thus: DRUGMATRIX: Acetylcholinesterase enzyme inhibition (substrate: acetylthiocholine). The format is cell-based, HEK293. As to conditions: Not Active = under 50% inhibition at 10 µM.

The structures appear in SMILES notation.

Our source for the IC50 and Ki values is ChEMBL document CHEMBL1909046, “DrugMatrix in vitro pharmacology data”.

Sequence of Acetylcholinesterase (P22303 whole entry): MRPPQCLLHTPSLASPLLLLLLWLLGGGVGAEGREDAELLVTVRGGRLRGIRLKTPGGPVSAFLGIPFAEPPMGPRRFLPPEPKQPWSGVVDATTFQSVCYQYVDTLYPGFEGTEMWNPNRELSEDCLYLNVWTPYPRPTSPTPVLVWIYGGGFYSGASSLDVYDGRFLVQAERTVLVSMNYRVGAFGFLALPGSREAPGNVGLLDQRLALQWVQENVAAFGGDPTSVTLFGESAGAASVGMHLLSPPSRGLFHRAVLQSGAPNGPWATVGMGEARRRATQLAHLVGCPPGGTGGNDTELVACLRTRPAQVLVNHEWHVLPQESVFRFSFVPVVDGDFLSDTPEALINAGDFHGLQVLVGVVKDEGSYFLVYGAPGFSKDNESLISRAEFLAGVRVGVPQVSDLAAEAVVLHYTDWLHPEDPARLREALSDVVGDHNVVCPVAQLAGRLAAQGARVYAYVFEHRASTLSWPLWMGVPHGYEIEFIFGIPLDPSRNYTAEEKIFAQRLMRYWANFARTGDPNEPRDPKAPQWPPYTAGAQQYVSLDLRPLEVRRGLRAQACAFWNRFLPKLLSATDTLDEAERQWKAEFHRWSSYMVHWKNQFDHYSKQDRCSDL
Sequence of Beta-3 adrenergic receptor (P13945 whole entry): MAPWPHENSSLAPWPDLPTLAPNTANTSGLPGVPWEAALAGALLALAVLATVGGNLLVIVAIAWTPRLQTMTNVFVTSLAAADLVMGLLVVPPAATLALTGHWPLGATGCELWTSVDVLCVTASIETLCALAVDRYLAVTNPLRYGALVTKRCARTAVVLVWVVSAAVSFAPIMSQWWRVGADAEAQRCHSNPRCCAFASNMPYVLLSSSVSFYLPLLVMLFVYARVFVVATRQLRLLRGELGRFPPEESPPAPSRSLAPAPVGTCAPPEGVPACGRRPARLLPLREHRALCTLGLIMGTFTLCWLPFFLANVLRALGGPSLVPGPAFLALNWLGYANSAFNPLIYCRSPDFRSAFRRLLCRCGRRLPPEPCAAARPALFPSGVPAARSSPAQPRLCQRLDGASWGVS
Sequence of Receptor tyrosine-protein kinase erbB-2 (P04626 whole entry): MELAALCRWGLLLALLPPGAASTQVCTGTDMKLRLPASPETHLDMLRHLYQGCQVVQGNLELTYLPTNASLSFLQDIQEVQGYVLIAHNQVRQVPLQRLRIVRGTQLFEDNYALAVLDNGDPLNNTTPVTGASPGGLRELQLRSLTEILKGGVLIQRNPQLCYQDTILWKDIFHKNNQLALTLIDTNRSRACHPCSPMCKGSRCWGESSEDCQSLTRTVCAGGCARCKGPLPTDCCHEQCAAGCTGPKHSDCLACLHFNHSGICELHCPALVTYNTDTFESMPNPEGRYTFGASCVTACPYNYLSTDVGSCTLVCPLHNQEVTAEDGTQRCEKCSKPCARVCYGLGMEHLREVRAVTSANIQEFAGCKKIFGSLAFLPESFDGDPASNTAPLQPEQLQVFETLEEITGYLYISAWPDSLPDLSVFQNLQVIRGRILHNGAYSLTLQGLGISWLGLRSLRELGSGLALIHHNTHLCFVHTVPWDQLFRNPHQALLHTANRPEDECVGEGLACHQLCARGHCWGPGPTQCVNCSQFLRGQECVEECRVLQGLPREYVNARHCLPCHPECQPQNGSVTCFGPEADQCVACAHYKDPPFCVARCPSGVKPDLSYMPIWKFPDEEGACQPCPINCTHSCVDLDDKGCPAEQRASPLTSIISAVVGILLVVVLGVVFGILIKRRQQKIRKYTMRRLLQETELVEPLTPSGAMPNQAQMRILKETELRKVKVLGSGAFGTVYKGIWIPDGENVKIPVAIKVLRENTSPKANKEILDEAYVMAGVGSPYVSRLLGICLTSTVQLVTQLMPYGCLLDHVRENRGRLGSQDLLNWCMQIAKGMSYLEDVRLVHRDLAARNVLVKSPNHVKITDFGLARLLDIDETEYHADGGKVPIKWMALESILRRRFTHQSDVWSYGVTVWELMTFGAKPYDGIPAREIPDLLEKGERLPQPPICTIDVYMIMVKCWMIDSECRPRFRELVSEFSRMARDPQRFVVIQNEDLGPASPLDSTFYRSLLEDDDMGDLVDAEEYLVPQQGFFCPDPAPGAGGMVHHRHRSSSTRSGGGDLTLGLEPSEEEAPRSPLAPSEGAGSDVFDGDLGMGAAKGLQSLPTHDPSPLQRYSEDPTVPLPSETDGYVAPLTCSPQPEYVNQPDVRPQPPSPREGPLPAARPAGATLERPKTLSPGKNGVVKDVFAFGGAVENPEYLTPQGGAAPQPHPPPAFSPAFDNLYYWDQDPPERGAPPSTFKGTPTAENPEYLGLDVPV
Sequence of Beta-2 adrenergic receptor (P07550 whole entry): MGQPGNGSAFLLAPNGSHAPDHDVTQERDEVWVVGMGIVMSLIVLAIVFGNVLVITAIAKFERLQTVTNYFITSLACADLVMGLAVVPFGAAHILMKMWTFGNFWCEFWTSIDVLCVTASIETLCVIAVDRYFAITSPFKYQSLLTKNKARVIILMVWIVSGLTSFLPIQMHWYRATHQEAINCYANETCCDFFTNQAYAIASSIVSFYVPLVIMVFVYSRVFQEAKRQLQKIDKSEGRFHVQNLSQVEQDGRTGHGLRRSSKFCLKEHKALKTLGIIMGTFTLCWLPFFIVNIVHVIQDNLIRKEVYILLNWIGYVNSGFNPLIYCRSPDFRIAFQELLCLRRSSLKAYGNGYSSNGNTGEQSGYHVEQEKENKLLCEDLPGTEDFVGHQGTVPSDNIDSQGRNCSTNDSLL

Turning to `COc1cc(N)nc2[nH]c(-c3ccc(F)cc3)c(-c3ccncc3)c12`, the IC50 result (in assay [1]; in assay [2] (hek293); in assay [3]; on Leukotriene C4 synthase; in assay [4] (insect cells); on Acetylcholinesterase (hek293)) was “Not Active” in each case. Further, the Ki result in assay [3] is “Not Active”.

Take `CNS(=O)(=O)Cc1ccc2[nH]cc(CCN(C)C)c2c1`: the IC50 result (in assay [1]; in assay [2] (hek293); in assay [3]; against Leukotriene C4 synthase; in assay [4] (insect cells); against Acetylcholinesterase (hek293)) was “Not Active” each time. Also, in assay [3], the Ki entry was “Not Active”.

`CCCc1nn(C)c2c(=O)[nH]c(-c3cc(S(=O)(=O)N4CCN(C)CC4)ccc3OCC)nc12`: the IC50 result (in assay [1]; in assay [2] (hek293); in assay [3]; at Leukotriene C4 synthase; in assay [4] (insect cells); against Acetylcholinesterase (hek293)) was “Not Active” in each case. The Ki result in assay [3] was “Not Active”.

Regarding `COc1ccc(/C=C/C(=O)Nc2ccccc2C(=O)O)cc1OC`, the IC50 result (in assay [1]; in assay [2] (hek293); in assay [3]; against Leukotriene C4 synthase; in assay [4] (insect cells); against Acetylcholinesterase (hek293)) was “Not Active” in each case. Besides, the Ki entry in assay [3] is recorded as “Not Active”.

Regarding `CCOC(N)=O`, the IC50 result (in assay [1]; in assay [2] (hek293); in assay [3]; at Leukotriene C4 synthase; in assay [4] (insect cells); against Acetylcholinesterase (hek293)) was “Not Active” throughout. Moreover, the Ki entry in assay [3] is “Not Active”.

Consider `CC(=O)Nc1nnc(S(N)(=O)=O)s1` [ACETAZOLAMIDE], for which the IC50 entry (in assay [1]; in assay [2] (hek293); on Leukotriene C4 synthase; in assay [4] (insect cells); at Acetylcholinesterase (hek293)) was “Not Active” in each case.

As to `O=c1[nH]c2ccccc2n1CCCN1CCC(n2c(=O)[nH]c3cc(Cl)ccc32)CC1` [DOMPERIDONE], the IC50 entry (in assay [1]; in assay [2] (hek293); at Leukotriene C4 synthase; in assay [4] (insect cells); against Acetylcholinesterase (hek293)) was “Not Active” each time.

As to `CC1=C(CC(=O)O)c2cc(F)ccc2/C1=C\c1ccc(S(C)(=O)=O)cc1` [EXISULIND], the IC50 result (in assay [1]; in assay [2] (hek293); in assay [3]; against Leukotriene C4 synthase; in assay [4] (insect cells); against Acetylcholinesterase (hek293)) was “Not Active” in each case. Also, the Ki result in assay [3] is reported as “Not Active”.

Take `CC(C)OC(=O)C(C)(C)Oc1ccc(C(=O)c2ccc(Cl)cc2)cc1` [FENOFIBRATE]: the IC50 result in assay [1] is “Not Active”; in assay [2] (read-out: IC50) it was 124 µM; on Leukotriene C4 synthase, “Not Active”; in assay [4] (insect cells) it was “Not Active”; at Acetylcholinesterase (read-out: IC50), 15.6 µM. In addition, the Ki in assay [2] amounted to 93 µM.

`OCCN1CCN(CCCN2c3ccccc3Sc3ccc(C(F)(F)F)cc32)CC1` [FLUPHENAZINE]: the IC50 result in assay [1] was “Not Active”; in assay [2] (read-out: IC50), 29.5 µM; at Leukotriene C4 synthase, “Not Active”; in assay [4] (read-out: IC50), 19.6 µM; on Acetylcholinesterase (hek293), “Not Active”. Further, the Ki in assay [2] was determined as 22.1 µM.

On to `CN1C2CCCC1CC(NC(=O)c1nn(C)c3ccccc13)C2` (stereo not given) [GRANISETRON], for which the IC50 result (in assay [1]; in assay [2] (hek293); on Leukotriene C4 synthase; in assay [4] (insect cells); at Acetylcholinesterase (hek293)) was “Not Active” in each case.

For the compound `Nc1nc2c(c(=O)[nH]1)N(C=O)C(CNc1ccc(C(=O)N[C@@H](CCC(=O)O)C(=O)O)cc1)CN2` (stereo not given in full) [LEUCOVORIN], the IC50 entry (in assay [1]; in assay [2] (hek293); in assay [3]; on Leukotriene C4 synthase; in assay [4] (insect cells); against Acetylcholinesterase (hek293)) was “Not Active” throughout. Moreover, the Ki result in assay [3] is on record as “Not Active”.

As for `C[C@@H](O)[C@H]1C(=O)N2C(C(=O)O)=C(S[C@@H]3CN[C@H](C(=O)N(C)C)C3)[C@H](C)[C@H]12` [MEROPENEM], the IC50 result (in assay [1]; in assay [2] (hek293); in assay [3]; at Leukotriene C4 synthase; in assay [4] (insect cells); at Acetylcholinesterase (hek293)) was “Not Active” throughout. Further, the Ki entry in assay [3] is “Not Active”.

Consider `CC[C@@H](CO)NC(=O)[C@@H]1C=C2c3cccc4c3c(cn4C)C[C@H]2N(C)C1` [METHYSERGIDE], for which the IC50 result (in assay [1]; in assay [2] (hek293); against Leukotriene C4 synthase; in assay [4] (insect cells); against Acetylcholinesterase (hek293)) was “Not Active” each time.

With `CCN(CC)CC#CCOC(=O)C(O)(c1ccccc1)C1CCCCC1` (stereo not given) [OXYBUTYNIN], the IC50 entry (in assay [1]; in assay [2] (hek293); against Leukotriene C4 synthase; in assay [4] (insect cells); against Acetylcholinesterase (hek293)) was “Not Active” in each case.

Consider `O=P(O)(O)C(O)(Cc1cccnc1)P(=O)(O)O` [RISEDRONIC ACID], for which the IC50 result (in assay [1]; in assay [2] (hek293); in assay [3]; against Leukotriene C4 synthase; in assay [4] (insect cells); against Acetylcholinesterase (hek293)) was “Not Active” throughout. For the same compound, in assay [3], the Ki entry was “Not Active”.

As to `CN(CCOc1ccc(CC2SC(=O)NC2=O)cc1)c1ccccn1` (stereo not given) [ROSIGLITAZONE], the IC50 result (in assay [1]; in assay [2] (hek293); in assay [3]; against Leukotriene C4 synthase; in assay [4] (insect cells); against Acetylcholinesterase (hek293)) was “Not Active” each time. Moreover, the Ki entry in assay [3] is reported as “Not Active”.

`C=C(C)[C@H]1Cc2c(ccc3c2O[C@@H]2COc4cc(OC)c(OC)cc4[C@@H]2C3=O)O1` [ROTENONE]: the IC50 result (in assay [1]; in assay [2] (hek293); in assay [3]; on Leukotriene C4 synthase; in assay [4] (insect cells); at Acetylcholinesterase (hek293)) was “Not Active” each time. In assay [3], the Ki result is on record as “Not Active”.

Take `C#CCN(C)[C@H](C)Cc1ccccc1` [SELEGILINE]: the IC50 result (in assay [1]; in assay [2] (hek293); in assay [3]; on Leukotriene C4 synthase; in assay [4] (insect cells); against Acetylcholinesterase (hek293)) was “Not Active” each time. For the same compound, in assay [3], the Ki entry was “Not Active”.

Consider `CO[C@H]1C[C@@H]2CC[C@@H](C)[C@@](O)(O2)C(=O)C(=O)N2CCCC[C@H]2C(=O)O[C@H]([C@H](C)C[C@@H]2CC[C@@H](O)[C@H](OC)C2)CC(=O)[C@H](C)/C=C(\C)[C@@H](O)[C@@H](OC)C(=O)[C@H](C)C[C@H](C)/C=C/C=C/C=C/1C` [SIROLIMUS], for which the IC50 result (in assay [1]; in assay [2] (hek293); in assay [3]; against Leukotriene C4 synthase; in assay [4] (insect cells); against Acetylcholinesterase (hek293)) was “Not Active” each time. In addition, in assay [3], the Ki result is listed as “Not Active”.

As for `CN[C@@H]1[C@H](O)[C@H](NC)[C@H]2O[C@@]3(O)C(=O)C[C@@H](C)O[C@H]3O[C@@H]2[C@H]1O` [SPECTINOMYCIN], the IC50 entry (in assay [1]; in assay [2] (hek293); in assay [3]; against Leukotriene C4 synthase; in assay [4] (insect cells); against Acetylcholinesterase (hek293)) was “Not Active” throughout. Further, the Ki result in assay [3] was “Not Active”.

For `Nc1ccc(S(=O)(=O)Nc2ncccn2)cc1` [SULFADIAZINE], the IC50 entry (in assay [1]; in assay [2] (hek293); in assay [3]; against Leukotriene C4 synthase; in assay [4] (insect cells); on Acetylcholinesterase (hek293)) was “Not Active” in each case. The Ki entry in assay [3] was “Not Active”.

`COc1ncnc(NS(=O)(=O)c2ccc(N)cc2)c1OC` [SULFADOXINE]: the IC50 entry (in assay [1]; in assay [2] (hek293); in assay [3]; against Leukotriene C4 synthase; in assay [4] (insect cells); at Acetylcholinesterase (hek293)) was “Not Active” in each case. The Ki entry in assay [3] is listed as “Not Active”.

For `Nc1ccc(S(=O)(=O)Nc2nccs2)cc1` [SULFATHIAZOLE], the IC50 result (in assay [1]; in assay [2] (hek293); in assay [3]; at Leukotriene C4 synthase; in assay [4] (insect cells); against Acetylcholinesterase (hek293)) was “Not Active” in each case. Also, the Ki result in assay [3] is on record as “Not Active”.

In the case of `C[C@]12CC[C@H]3[C@@H](CCC4=CC(=O)CC[C@@]43C)[C@@H]1CC[C@@H]2O` [TESTOSTERONE], the IC50 result (in assay [1]; in assay [2] (hek293); in assay [3]; on Leukotriene C4 synthase; in assay [4] (insect cells); at Acetylcholinesterase (hek293)) was “Not Active” in each case. Also, the Ki entry in assay [3] was “Not Active”.

`CC(C)(C)NC[C@H](O)COc1nsnc1N1CCOCC1` [TIMOLOL]: the IC50 was 0.452 µM in assay [2] (read-out: IC50); “Not Active” in assay [3]; “Not Active” at Leukotriene C4 synthase; “Not Active” in assay [4] (insect cells); “Not Active” at Acetylcholinesterase (hek293). The values for the Ki in assay [2] and in assay [3] were 0.339 µM and “Not Active”, respectively.

For `O=c1n(CCCN2CCN(c3cccc(Cl)c3)CC2)nc2ccccn12` [TRAZODONE], the IC50 entry (in assay [1]; in assay [2] (hek293); against Leukotriene C4 synthase; in assay [4] (insect cells); at Acetylcholinesterase (hek293)) was “Not Active” throughout.

Broadly, the IC50 is the concentration that inhibits the measured activity by half. A word on the Ki: it is the dissociation constant of the complex between target and ligand, obtained from inhibition or displacement.
